Columns and labels:
HIV-1 = experiment: C8166 HIV-1 Luciferase Assay (EC50); assay type: cell-based; details: Human immunodeficiency virus 1, C8166, 72 h
Description: C8166 HIV-1 Luciferase Assay (Ec50)
The assay used to measure inhibition of HIV replication is as described in WO 2004/050643, pages 73-75, incorporated herein by reference, with the following modifications:
Serial dilutions of HIV-1 inhibitors are prepared in complete media from DMSO stock solutions. Eleven serial dilutions of desired concentration are prepared in a 1 mL deep well titer plate (96 wells). The 12th well contains complete media with no inhibitor and serves as the positive control. All samples contain the same concentration of DMSO (<0.1% DMSO). Inhibitor is added, to triplicate wells, of a 96 well tissue culture treated clear view black microtiter plate (Corning Costar catalogue #3904). The total volume per well is 200 μL of media containing the cells and inhibitor. The last row is reserved for uninfected C8166 LTRIuc cells to serve as the background blank control and the first row is media alone.
Count C8166 LTRIuc cells and place in a minimal volume of complete RPMI 1640 in a tissue culture flask (ex. 30×10^6 cells in 10 mL media/25 cm^2 flask). Infect cells with HIV-1 at a moi of 0.005. Incubate cells for 1.5 h at 37° C. on a rotating rack in a 5% CO2 incubator. Resuspend cells in complete RPMI to give a final concentration of 25,000-cells/well. Add cells to wells of 96 well microtiter plate containing inhibitors. Add 25,000 uninfected C8166-LTRIuc cells/well in 200 μL complete RPMI to last row for background control. Incubate cells at 37° C. in 5% CO2 incubator for 3 days.
50 μL Steady Glo (luciferase substrate T112=5 hours Promega catalogue # E2520) is added to each well of the 96 well plate. The relative light units (RLU) of luciferase are determined using a luminescence plate reader. The calculated % inhibition values are used to determine EC50, slope factor (n) and maximum inhibition (Imax).

[1] = Caco-2 Permeability Assay; assay type: in vitro ADME; details: human, apparent permeability A to B, compound at 10 μM, apical buffer pH 6.0, basolateral buffer pH 7.4, read-out: Papp (cm/sec, *10^−6)
Source text: Caco-2 Permeability Assay Caco-2 cells are purchased from Cell Culture Services as frozen instant cells at a concentration of 1*10^7 cells/vial. DMEM+glutamax-I culture media is purchased from Gibco (10569). Fetal bovine serum (FBS) is purchased from HyClone (SH30396.03). Pennicilin/Streptomycin antibiotics are purchased from Gibco (15140). MEM non-essential amino acids are purchased from Gibco (11140). Hank's balanced salt solution (HBSS) is purchased from Gibco (14025). Bovine serum albumin (BSA) is purchased from Sigma-Aldrich (A7906). MES low moisture is purchased from Sigma-Aldrich (M3671). HEPES is purchased from Sigma-Aldrich (H3375). Dimethyl Sulfoxide (DMSO) is purchased from EMD (MX1457-6). Complete DMEM media is prepared by adding 1 L of FBS, 100 mL of pen/strep and 110 mL of MEM non essential amino acids to 10 L of DMEM+glutamax-I. […] Caco-2 cells are seeded on HTS transwell 24-well plates purchased from Corning (3397). These polycarbonate membrane plates have a diameter of […] and pore size of 0.4 μm. The Caco-2 cells vial is thawed in a 37° C. water bath until only a small ice pellet is left. The vial is then transferred to the laminar flow hood and its exterior is extensively washed with 70% ethanol. The total content of the vial (2 mL) is transferred into a 50 mL tube containing 38 mL of complete DMEM. […] The seeding is done by the Hamilton star robotic station which is controlled with the Venus program. Each well will receive 600 μL of complete DMEM on its basolateral side and 200 μL of cells on its apical side. Each well receives 50 000 cells. The 24-well plates are then returned to an automated Liconic STX110 incubator set at 37° C., 5% CO2 and 100% humidity. The culture media for the cells is changed every two days except on weekends. These cells are maintained for a period of two weeks prior to the running of the permeability assay. Permeability assays are usually performed between day 15 and 18 after the initial seeding. […] Controls for the assay are mannitol for tight junction determination and Digoxin for efflux transporter (p-glycoprotein) expression. On the day of the assay, each compound is diluted to 10 μM in the buffer (apical for A to B). 6 μl of the 5 mM DMSO stock is added to 3 mL of the buffer in a 24-well 10 mL deep plate covered with a lid. The plate containing all the diluted compounds is spun for 10 min at 3000 rpm in a Rotanta 46 RSC centrifuge from Hettich to remove unsoluble compound. This dilution is used to add at the start of the incubation. Each compound is tested in duplicate. On the day of the assay, the culture media of the 24-well plate is removed and replaced with warm HBSS. The HBSS is then also removed and the Apical and Basolatral buffer are added to their respective side of the transwells. These steps are performed by the Hamilton Star robotic station. The plate is then placed in a 37° C. incubator and is left to equilibrate for 30 min. After 30 min of incubation a background sample (25 μL from each well) is taken from the receiver side (Basolateral for A to B), and replenished with warm buffer. These samples and all others afterwards are kept in a 96-well 1 mL plate. To start the assay, the donor compartment (apical for A to B) is emptied and replaced with new buffer containing the compound at 10 μM. Once the compounds are added, the plate is returned to the 37° C. incubator and the timer is started. In order to determine how much compound is actually added to each well, a 50 μL sample is taken from each compound dilution, this sample is refered to as the load. These steps and the following are performed by the Tecan Freedom EVO robotic station controlled via the Gemini software. For A-to-B Assay: Samples (190 μL) are taken from each basolateral (receiver) chamber at time points 0, 60, 120 and 180 min or at time points 0, 30, 60 and 90 min. From the 190 μL taken, 50 μL is transferred to the receiving plate and 140 μL is discarded.

Row | SMILES | EC50 (HIV-1) | Papp A→B at 10 μM [1]
1 | CC[C@@H]1C[C@H](n2c(=O)nc(-c3ccc(NC)nc3)c3oc4ccc(-c5cnn(C)c5)cc4c32)CO1 (racemic) [Compound 1037] | 10.2 nM | 8.2 ×10⁻⁶ cm/s
2 | CC[C@H]1C[C@@H](n2c(=O)nc(-c3cnn(C)c3)c3oc4ccc(-c5cnn(C)c5)nc4c32)CCO1 [Compound 1001] | 4.9 nM | 20.4 ×10⁻⁶ cm/s
3 | CC[C@H]1C[C@@H](n2c(=O)nc(-c3cnn(C)c3)c3oc4ccc(-c5cn(C)nc5C)nc4c32)CCO1 [Compound 1002] | 8.6 nM | 14.5 ×10⁻⁶ cm/s
4 | CC[C@H]1C[C@@H](n2c(=O)nc(-c3cnn(C)c3)c3oc4ccc(-c5ccn(C)n5)nc4c32)CCO1 [Compound 1003] | 6.4 nM | 22.2 ×10⁻⁶ cm/s
5 | CC[C@H]1C[C@@H](n2c(=O)nc(-c3cnn(C)c3)c3oc4ccc(-c5cncnc5)nc4c32)CCO1 [Compound 1004] | 21 nM | 14.1 ×10⁻⁶ cm/s
6 | CC[C@H]1C[C@@H](n2c(=O)nc(-c3cnn(C)c3)c3oc4ccc(-c5cccnc5)nc4c32)CCO1 [Compound 1006] | 7.4 nM | 18.1 ×10⁻⁶ cm/s
7 | CC[C@H]1C[C@@H](n2c(=O)nc(-c3cnn(C)c3)c3oc4ccc(-c5cnco5)nc4c32)CCO1 [Compound 1007] | 8.4 nM | 19.7 ×10⁻⁶ cm/s
8 | C[C@@H]1C[C@H](n2c(=O)nc(-c3cnn(C)c3)c3oc4ccc(-c5cnn(C)c5)nc4c32)C[C@H](C)O1 [Compound 1008] | 73.9 nM | 18.1 ×10⁻⁶ cm/s
9 | CC[C@H]1C[C@@H](n2c(=O)nc(-c3cnn(C)c3)c3oc4ccc(-c5cnn(C)c5)nc4c32)C[C@@H](C)O1 [Compound 1009] | 4.6 nM | 27.6 ×10⁻⁶ cm/s
10 | CC[C@H]1C[C@@H](n2c(=O)nc(-c3cnn(C)c3)c3oc4ccc(-n5cncn5)nc4c32)CCO1 [Compound 1013] | 98 nM | 16.8 ×10⁻⁶ cm/s
11 | CC[C@H]1C[C@@H](n2c(=O)nc(-c3cnn(C)c3)c3oc4ccc(-c5cn(C)cn5)nc4c32)CCO1 [Compound 1014] | 5.2 nM | 20.7 ×10⁻⁶ cm/s
12 | CC[C@H]1C[C@@H](n2c(=O)nc(-c3cnn(C)c3)c3oc4cc(C#N)c(-c5cnn(C)c5)nc4c32)CCO1 [Compound 1015] | 3 nM | 20.7 ×10⁻⁶ cm/s
13 | C[C@@H]1C[C@H](n2c(=O)nc(-c3cnn(C)c3)c3oc4cc(C#N)c(-c5cnn(C)c5)nc4c32)C[C@H](C)O1 [Compound 1016] | 89 nM | 15.9 ×10⁻⁶ cm/s
14 | CC[C@H]1C[C@@H](n2c(=O)nc(-c3cnn(C)c3)c3oc4cc(C#N)c(-c5cnn(C)c5)nc4c32)C[C@@H](C)O1 [Compound 1017] | 22 nM | 23.6 ×10⁻⁶ cm/s
15 | CCC[C@H]1C[C@@H](n2c(=O)nc(-c3cnn(C)c3)c3oc4cc(C#N)c(-c5cnn(C)c5)nc4c32)CCO1 [Compound 1018] | 22 nM | 19.8 ×10⁻⁶ cm/s
16 | CC[C@H]1C[C@@H](n2c(=O)nc(-c3cccnc3)c3oc4cc(C#N)c(-c5cnn(C)c5)nc4c32)CCO1 [Compound 1019] | 52 nM | 22.5 ×10⁻⁶ cm/s
17 | CC[C@H]1C[C@@H](n2c(=O)nc(-c3cnn(C)c3)c3oc4cc(Cl)c(-c5cnn(C)c5)nc4c32)CCO1 [Compound 1022] | 3.2 nM | 17.2 ×10⁻⁶ cm/s
18 | CNc1ccc(-c2nc(=O)n(CCC3CCCO3)c3c2oc2ccc(-c4cnn(C(C)C)c4)cc23)cn1 (stereo not drawn) [Compound 1025] | 350 nM | 8.1 ×10⁻⁶ cm/s
19 | Cn1cc(-c2ccc3oc4c(-c5ccc(N6CCOCC6)nc5)nc(=O)n(CCC5CCCO5)c4c3c2)cn1 (stereo not drawn) [Compound 1026] | 27.9 nM | 7.4 ×10⁻⁶ cm/s
20 | CNc1ccc(-c2nc(=O)n(CCC3CCCO3)c3c2oc2ccc(-c4cnco4)cc23)cn1 (stereo not drawn) [Compound 1027] | 54 nM | 12.4 ×10⁻⁶ cm/s
21 | CC[C@H]1C[C@@H](n2c(=O)nc(-c3cnn(C)c3)c3oc4cc(C#N)c(-c5cnn(C)c5)cc4c32)CCO1 [Compound 1049] | 15.1 nM | –
22 | CC[C@H]1C[C@@H](n2c(=O)nc(-c3ccc(NC)nc3)c3oc4ncc(-c5cnn(C)c5)cc4c32)CCO1 [Compound 1069] | 7.8 nM | –
